Patent US8653023B1, “Dual beneficial effect of dopamine enhancing and neuroprotective actions of PKC delta inhibitors for treatment of Parkinson's disease” (Iowa State University Research Foundation, Inc., priority 2006, dated 2014)

Key:
[1] = tested on: MPTP-treated C57 black mice; assay: Locomotor activity of MPTP-treated mice (VersaMax); type: in vivo; settings: rottlerin 20 mg/kg + MPTP 30 mg/kg 5 days
Text: Behavioral data were collected using VersaMax Animal Activity Monitors (AccuScan Model RXYZCM-16, Columbus, Ohio). Each chamber was 40×40×30.5 cm^3, made of clear Plexiglas and covered with a Plexiglas lid with air-holes. Infrared monitoring sensors were located every 2.54 cm along the perimeter (16 infrared beams along each side) and 2.5 cm above the floor. Two additional sets of 16 sensors were located 8.0 cm above the floor on opposite sides. Data were collected and analyzed by a VersaMax Analyzer (AccuScan Model CDA-8, Columbus, Ohio) which in turn sent information to an IBM computer where it was stored for future analyses. Locomotor activity was presented as horizontal movement and vertical movement. All data are expressed as percent of the vehicle-treated control group (mean 6 SEM) and were obtained 1 day after MPTP or vehicle treatment in a 20-min test session.

[2] = tested on: tyrosine hydroxylase (TH); assay: TH-ser40 phosphorylation in primary mesencephalic neurons (immunofluorescence); type: cell-based, mouse; settings: PKCδ (+/+) primary neuronal cultures, 3 μM rottlerin for 3 hr
Method: PC12 and N27 cells were cultured as described earlier (Anantharam et al., 2002; Kaul et al., 2003). Briefly, cells were grown in RPMI 1640 medium containing 10% fetal bovine serum, 2 mM L-glutamine, 50 units of penicillin, and 50 μg/ml streptomycin. Cells were maintained in a humidified atmosphere of 5% CO2 at 37° C. N27 cells were differentiated with 2 mM dibutyryl cAMP for 3-5 days and then used for experiments described below. Primary mesencephalic neuronal cultures were prepared from the ventral mesencephalon of gestational 16-18-day-old mice embryos as described previously (Yang et al., 2004). Mesencephalic tissues were dissected and maintained in ice-cold Ca^2+-free HESS and then dissociated in HBSS solution containing trypsin-EDTA (0.25%) for 20 min at 37° C. The dissociated cells were then plated at equal density (0.5×10^6 cells) in 30-mm-diameter tissue culture wells precoated with poly-L-lysine (1 mg/ml). […]
Plasmid pPKCδ^K376R-V5 encodes the loss of function PKCδ-V5 epitope tagged mutant protein; K376R refers to the mutation of the lysine residue at position 376 to arginine in the catalytic site resulting in inactivation of the kinase. […] Transfection efficiency was >75% as determined by immunostaining of V5-expression. […]

PKCδ = PKCδ (Homo sapiens, UniProt Q05655); settings: cited from earlier work
PKCα or PKCβ = settings: cited from earlier work
dopaminergic N27 cells = settings: cited from earlier work
3T3 cells = settings: zinc deficient medium; cited from earlier work

Chain of PKCδ (Q05655 whole entry): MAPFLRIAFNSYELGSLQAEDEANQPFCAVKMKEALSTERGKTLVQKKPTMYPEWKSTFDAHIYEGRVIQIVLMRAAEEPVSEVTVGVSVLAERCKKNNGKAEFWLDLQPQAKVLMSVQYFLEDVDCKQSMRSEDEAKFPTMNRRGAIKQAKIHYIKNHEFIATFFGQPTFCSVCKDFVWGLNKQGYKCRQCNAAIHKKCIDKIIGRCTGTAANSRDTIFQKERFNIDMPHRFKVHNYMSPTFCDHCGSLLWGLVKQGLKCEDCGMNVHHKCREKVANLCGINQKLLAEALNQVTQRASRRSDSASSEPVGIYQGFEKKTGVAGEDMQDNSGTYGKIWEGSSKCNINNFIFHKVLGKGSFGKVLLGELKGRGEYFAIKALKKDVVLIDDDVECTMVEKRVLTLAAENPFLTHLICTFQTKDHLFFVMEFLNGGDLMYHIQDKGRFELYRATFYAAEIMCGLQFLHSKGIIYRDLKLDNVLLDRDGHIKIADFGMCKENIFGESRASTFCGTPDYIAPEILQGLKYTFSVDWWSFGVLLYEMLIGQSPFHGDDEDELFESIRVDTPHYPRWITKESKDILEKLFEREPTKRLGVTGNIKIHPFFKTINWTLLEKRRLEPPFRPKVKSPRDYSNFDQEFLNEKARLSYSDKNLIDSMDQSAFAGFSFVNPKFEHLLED

CC(=O)c1c(O)c(C)c(O)c(Cc2c(O)c3c(c(C(=O)/C=C/c4ccccc4)c2O)OC(C)(C)C=C3)c1O [rottlerin]
horizontal movement, percent of vehicle-treated control [1]: 76.93% | vertical movement, percent of vehicle-treated control [1]: 79% | TH-ser40 fluorescent intensity, increase [2]: 4 fold | IC50 (PKCδ): 3 to 6 µM | fold more potent on PKCδ than on PKCα or PKCβ (PKCα or PKCβ): 5- to 10 fold | H2O2 and MPP+-induced apoptotic cell death (genistein: also PKCδ cleavage, kinase activation) (dopaminergic N27 cells): dramatically inhibited | cell number (3T3 cells): restored | proteolysis of PKC-delta, activated caspase-3 (3T3 cells): reduced or eliminated
